# Test results from US4318925A (priority 1977, dated 1982).
# Where a name gives a salt, the structure may show the parent alone. Read-outs that look alike come from different tables or passages of the source.
# Assays:
# influenza viruses = conditions: British Pat. No. 1,063,366; SCIENCE, Vol. 144, 862, (1964); cited from earlier work
# Newcastle diseases virus = conditions: Koji Aigami et al., J. of Medicinal Chemistry, Vol. 19, 536 (1976); cited from earlier work
# Influenza AoPR/8 = assay type: in vivo, ddY male mice; conditions: subcutaneous, from 3 hours pre to 150 hours post infection, LLS 7 days after infection, Control (0 mg/kg) 4.8
# in vitro = conditions: human, kb cells
Compound,MCC at 72 h (in vitro),Lung Lesion Score (Influenza AoPR/8; 15 mg/kg),also measured
NC12CC3CC(CC(C3)C1)C2 [1-adamantanamine],–,–,antiviral activity against influenza viruses (influenza viruses): show antiviral against influenza viruses
NC12CCCC3CC(CCC31)C2 (centres unmarked) [3-amino-4-homoisotwistane hydrochloride],–,–,antiviral activity against Newcastle diseases virus (Newcastle diseases virus): have antiviral activity against Newcastle diseases virus
"NC12CC3CC(CC(C3)C1)C2 [Amantadine hydrochloride, reference compound]",> 50 µg/mL,–,Lung Lesion Score (Influenza AoPR/8; 10 mg/kg): 4.3
CN(C)CCOCC(=O)NC12CCCC3CC(CCC31)C2 (centres unmarked) [N-[3-(4-homoisotwistyl)]-2-(2-dimethylaminoethoxy)-acetamide hydrochloride],250 µg/mL,4.33,–
CCOCC(=O)NC12CCCC3CC(CCC31)C2 (centres unmarked) [N-[3-(4-homoisotwistyl)]-2-ethoxyacetamide],25 µg/mL,–,–
CCCCCOCC(=O)NC12CCCC3CC(CCC31)C2 (centres unmarked) [N-[3-(4-homoisotwistyl)]-2-pentyloxyacetamide],5 µg/mL,–,–
O=C(COc1ccccc1)NC12CCCC3CC(CCC31)C2 (centres unmarked) [N-[3-(4-homoisotwistyl)]-2-phenoxyacetamide],–,4.35,–
CCCCCCCCCCCOCC(=O)NC12CCCC3CC(CCC31)C2 (centres unmarked) [N-[3-(4-homoisotwistyl)]-2-undecyloxyacetamide],10 µg/mL,–,–
"CN(C)CCOCC(=O)N(C)C12CCCC3CC(CCC31)C2 (centres unmarked) [N-methyl, N-[3-(4-homoisotwistyl)]-2-(2-dimethylaminoethoxy) acetamide hydrochloride]",–,4.50,–
